In experiment [1] the test system is Human HaCaT keratinocyte cells. The experiment can be described thus: Protection against polycyclic aromatic hydrocarbons (BaP) in the presence of UVA, neutral red uptake. It is filed as cell-based. The following applies: for % Protection against BaP: individual active, UVA-BaP. The source says:
Polycyclic aromatic hydrocarbons (PAHs) are a class of mutagenic and tumorigenic environmental contaminants. PAHs are widespread in the environment produced from incomplete combustion of natural materials and tobacco smoke (Connell, D. W.; Hawker, D. W.; Warne, M. J.; Vowles. P. P.; Polycyclic aromatic hydrocarbons (PAHs). In Introduction into Environmental Chemistry (McCombs. K., and Starkweather, A. W., eds), 1997, pp. 205-217, CRC Press LLC, Boca Raton, Fla. 2. Shaw, G. R.; Connell, D. W.: Prediction and monitoring of the carcinogenicity of polycyclic aromatic compounds (PACs). Rev. Environ. Contam. Toxic., 1994, 135, 1-62.) PAHs themselves are biologically inert and require metabolic activation. in order to exert genotoxicity PAHs absorb light in the UVA region, react with oxygen or other molecules to generate reactive intermediates (Yu H, Xia Q, Yan J, et al. Photoirradiation of polycyclic aromatic hydrocarbons with UVA light—a pathway leading to the generation of reactive oxygen species, lipid peroxidation, and dna damage. Int J Environ Res Public Health. 2006; 3:348-354) Thus, PAHs can be “activated” by light irradiation to cause photo-induced cytotoxicity. Thus photoirradiation of PAHs with UVA irradiation represents a pollutant which causes cytotoxicity and DNA damage.
Human HaCaT keratinocyte cells were seeded at a density of 1×10^4 cells/well in 96 well plates. Cells were allowed to adhere for overnight. They were pretreated with Benzo(a)pyrene a PAH at 0.5 mM concentration along with different concentrations of plant actives for 50 minutes, exposed to UVA at an intensity of 17 Joules m2. Cells were washed with sterile buffer and fresh culture medium (2% of FBS) with respective concentrations of plant actives were added followed by incubation for 24 hours at 37° C. in a CO2 incubator. Neutral Red (25 μg/mL) (3-amino-7-dimethylamino-2-methylphenazine hydrochloride), was added to the cells for 3 hours. The uptake of NR by the cells was determined by lysing the cells and reading the absorbance at 540 nm in a Tecan microplate reader (TECAN Ltd, Männedorf, Switzerland)

Another experiment deals with IL-8. The experiment can be described thus: Anti-inflammatory activity: IL8 in assay supernatants by ELISA. It is filed as cell-based. The procedure:
IL8 in the assay supernatants were measured using Duoset ELISA kit (R & D systems, Cat No. DY208)

Experiment [2] concerns Collagenase Type IV from Clostridium histolyticum. The experiment can be described thus: Anti-collagenase activity (DQ gelatin, fluorescence). It is filed as biochemical. From the text: Collagenase is one of the matrix metalloprotease, which digest collagen and other components of the extra cellular matrix (ECM). The ECM serves as a scaffold to stabilize the skin structure, and also helps in proliferation and metabolic functions of the skin cells. Loss of collagen leads to wrinkles and sagging of skin. The principle of the assay of collagenase inhibition is based on the fact that the substrate DQ™ gelatine is conjugated to fluorecein—a fluorescent compound. In DQ™ gelatine, fluorescence is quenched. DQ™ gelatine is efficiently digested by collagenases to yield a fluorescent compound which can be measured. The increase in fluorescence is proportional to enzyme activity. In the presence of an anti-collagenase compound the amount of fluorescence will be decreased for a fixed concentration of enzyme and substrate.
Collagenase Enzyme assay kit (Enzchek® collagenase, gelatinase assay kit, Invitrogen, USA)
The assay was performed in a 96 well black microtitre plate. Type IV from Clostridium histolyticum with DQ gelatin as substrate was used for the assay. Different concentrations of various plant actives were pre incubated with 20 µl of gelatin substrate (12.5 µg/ml). 100 µl of the Collagenase enzyme solution (final concentration—0.4 U/ml) was added and the fluorescence intensity was measured at […] after 30 minutes. Enzyme activity of control (buffer) was recorded
The percentage inhibition is calculated as follows:—
[formula] B—Fluorescence in the presence of enzyme. BC—Fluorescence in the absence of enzyme activity T—Fluorescence of enzyme activity in the presence of inhibitor TC—Fluorescence of the inhibitor alone

A short description of experiment [3]: DPPH free radical scavenging assay. The source says: Reactive oxygen species (ROS) including superoxide, hydroxyl, peroxyl, and alkoxy radicals are produced by normal metabolic processes. Under normal condition, these free radicals are scavenged by the cellular anti-oxidants and remain in equilibrium. Radiations, toxins and pollutants increase the ROS which can induce oxidative damage to biomolecules such as lipids, nucleic acids, proteins and carbohydrates. These ROS induced damage causes skin irritation, inflammation, ageing, cancer and many other diseases, α, α-diphenyl-β-picrylhydrazyl (DPPH) free radical scavenging method is one of the first approach for evaluating the antioxidant potential of a compound.
Reagents: 0.1 mM of DPPH in ethanol, 0.1M phosphate buffered saline (pH 7.4)
DPPH is a stable free radical in a methanolic solution with an absorbance at 520 nm. If the free radicals are scavenged by an anti oxidant molecule, the resulting solution appears yellow. The hydrogen atoms or electrons donation ability of the extracellular metabolite was measured by the bleaching of purple coloured DPPH methanol solution.
Different concentrations of various plant actives were diluted in methanol. For the DPPH radical scavenging assay, 20 μL of different concentration of sample was mixed with 180 μL of DPPH in methanol in a 96 well plate following the method as described earlier (Clarke et al., 2013). The plate was kept in the dark for 15 min. after which the absorbance of the solution was measured at 540 nm using a microplate reader (TECAN Ltd, Männedorf. Switzerland). Blanks (DMSO, methanol) and standard (TBHQ solution in methanol) were recorded simultaneously. The extracts were screened with variable concentrations to establish the inhibition concentration (IC50, the concentration reducing DPPH absorbance by 50%).
The free radical scavenging activity was calculated as follows.
[formula] Where, B=Absorbance of reference solution (OD of DPPH) C=Absorbance of reference solution blank (OD of Methanol only) S=Absorbance of test solution C=Absorbance of test solution blank

Experiment [4] deals with superoxide dismutase (SOD). Briefly: Antioxidant assay: superoxide dismutase (SOD) activity in cell lysate, WST-1 method. The class given is cell-based, Human. The following applies: UV-exposed keratinocytes. The procedure: (§1) Cellular anti-oxidants are depleted by pollutants. The ability of plant actives to increase these anti-oxidant enzymes in the cells was studied in vitro. Human HaCaT keratinocyte cells were seeded at a density of 5×10^5 cells, well in 6 well plates. The cells were pretreated for one hour with plant actives and exposed to UVA intensity of 17 Joules/m2 for 50 mins. Cells were washed with sterile buffer and fresh culture medium (2% of FBS) with respective concentrations of plant actives were added followed by incubation for 24 hours at 37° C. in a CO2 incubator. Cell lysate were prepared and superoxide dismutase (SOD) levels and glutathione peroxidase (GPx) were estimated.
The activity of SOD in the cell lysate was measured by WST-1 method using a kit as per the manufacturer's instructions (Elabsciences). Xanthine Oxidase (XO) can catalyze WST-1 react with O2. —to generate a water-soluble formazan dye. SOD can catalyze the disproportionation of superoxide anions, so the reaction can be inhibited by SOD, and the activity of SOD is negatively correlated with the amount of formazan dye. Therefore, the activity of SOD can be determined by the colorimetric analysis of WST-1 products.

The test system of experiment [5] is glutathione peroxidase (GPx). The experiment can be described thus: Antioxidant assay: glutathione peroxidase (GPx) activity in cell lysate. It is filed as cell-based, Human. Conditions: UV-exposed keratinocytes. The procedure:
as §1
Glutathione peroxidase activity was determined according to the method of Hafeman et al. (1974). Glutathione peroxidase degrades H2O2 in presence of glutathione (GSH) thereby depleting it. GSH remaining is measured using DTNB, which gives a colored complex.
To a volume of 100 μl of cell lysate, 0.2 mM GSH, 0.05 mM H2O2 and 1 mM NaN3 in a total volume of 250 μl with 1M sodium phosphate buffer (pH 7.0). The reaction was incubated at 37° C. for 10 min and stopped by adding 50 μl of 25% TCA. […] The intensity of yellow color formation was measured at 412 nm after incubation at 37° C. for 10 min The enzyme activity was expressed as units/mg protein.

The test system of experiment [6] is Human HaCaT keratinocyte cells/mouse fibroblast cells. Briefly: ROS assay (DCFH-DA) after exposure to heavy metals, UVA or UVB. It is filed as cell-based. The source says:
A cell permeable, non-fluorescent dye, 2′,7′-dichlorofluorescein diacetate (DCFH-DA) enters the cell and the acetate group on DCFH-DA is cleaved by cellular esterases, trapping the non-fluorescent DCFH inside the cell. Subsequent oxidation by reactive oxygen species generated in the cells, yields the fluorescent DCF which can be detected at 485/520 Ex:Em wavelength. The scavenging activity of sample is indicated by the decrease in fluorescence when compared to the control without antioxidant.
Human HaCaT keratinocyte cells/mouse fibroblast cells were maintained in DMEM containing 25 mM glucose with 10% heat-inactivated fetal calf serum with antibiotics at 37° C. and 5% CO2. When the cells were 70-80% confluent, they were trypsinized, washed and seeded in 96 well plates at a density seeded at a density of 5×10^4 cells/well. Cells were allowed to adhere for overnight. Cells were pretreated with varying non toxic concentrations of different plant actives for 60 minutes before exposing to the pollutant. Cells were exposed to the following pollutants in the presence of plant actives.
UVA intensity of 15 Joules/m2 for 60 mins,
UV-B intensity of 4.6 Joule/m2 for 10 mins
Heavy metals (Cobalt chloride and Lead Nitrate at 0.25 mm each) for 6 hours
Intracellular ROS was determined after the specific treatment period by adding freshly prepared DCFH-DA reagent to all the wells at a concentration of 10 μg/well and incubated at 37° C. for 30 mins. The fluorescence was recorded at a wavelength of 485:520 (Ex:Em) nm in BMG FluoStar Optima microplate reader.

Structures are written as SMILES.

Regarding `COc1cc(/C=C/c2ccc(O)cc2)cc(OC)c1` [Pterostilbene, pterostilbene], the “% Protection against BaP” value in experiment [1] (2.5 μgml) is “No activity”.
For `COc1cc(CCC(=O)CC(=O)CCc2ccc(O)c(OC)c2)ccc1O` [Tetrahydrocurcumin, tetrahydrocurcumin], the “% Protection against BaP” value in experiment [1] (5 μg/ml) is given as “No activity”. Moreover, in the experiment on IL-8 (read-out: % inhibition of IL-8), the inhibition at 12.5 µg/mL is 6.07% and the inhibition at 25 µg/mL stood at 11.7%.
As to `Oc1cc(O)cc(/C=C/c2ccc(O)cc2O)c1` [Oxyresveratrol, oxyresveratrol], the “Anti-collagenase activity % inhibition” value was 0.05% in experiment [2] (12.5 μg/ml), 9.93% in experiment [2] (25 μg/ml), 41.19% in experiment [2] (50 μg/ml) and 80.92% in experiment [2] (100 μg/ml). Moreover, the “protection against UVA+BaP” value in experiment [1] (concentrations of 3.12-12.5 μg/ml) is recorded as “dose dependant protection”. Further, the “% Protection against BaP” value in experiment [1] (6.25 μg/ml) is given as 28.04%. In addition, the “DPPH radical scavenging % inhibition” value is 22.9% in experiment [3] (0.3125 μg/ml); 42.07% in experiment [3] (0.625 μg/ml); 68.63% in experiment [3] (1.25 μg/ml); 77.89% in experiment [3] (2.5 μg/ml); 84.14% in experiment [3] (5.00 μg/ml). Moreover, the “DPPH radical scavenging IC50” value in experiment [3] (concentration reducing DPPH absorbance by 50%) is 0.61 µg/mL. In the experiment on IL-8 (3.125 μg/ml), this molecule had an inhibition at 3.125 µg/mL of 13.3%. Further, the inhibition at 6.25 µg/mL with IL-8 (6.25 μg/ml) was found to be 18.4%. In addition, the values for the superoxide dismutase activity result in experiment [4] and in experiment [4] (listed as 95% oxyresveratrol) were “restored normal enzyme activity” and “dose dependant increase”, respectively. For the same molecule, the results for the glutathione peroxidase activity entry in experiment [5] and in experiment [5] (listed as 95% oxyresveratrol) were “restored normal enzyme activity” and “dose dependant decrease”, respectively. Also, in experiment [6] (UVA 60 mins), the “ROS generated by exposure to UVA” value is recorded as “reduced the ROS”. Besides, the “ROS generated by exposure to UVB” value in experiment [6] (UVB 10 mins) is listed as “reduced the ROS”. The “ROS generated by exposure to heavy metals” value in experiment [6] (heavy metals (cobalt chloride and lead nitrate) 6 hours) is recorded as “reduced the ROS”.

The values above are taken from US11351102B2, “Plant actives and their anti-pollution effects thereof” (SAMI-SABINSA GROUP LIMITED, priority 2019, dated 2022).
